Assays:
[1] = in vivo
[2] = tested on: mice; conditions: mouse, in vivo
[3] = tested on: CF-1 mice; conditions: in vivo
[4] = tested on: mice; conditions: mouse, in vivo; remark: listed apart in the source

NGVCCGYKLCHOC [Mar1]
activity in formalin test (licking time) [1]: active | symptoms after high-dose i.c.v. administration [2]: akinesia and seizures | symptoms after i.c.v. injection of HPLC fractions [2]: hypokinetic “sluggish” symptoms | analgesic activity in mouse hot plate assay [3]: potent analgesics | increase in the latency to first hind paw lick ([3]; mouse): dose-dependent | latency to first hind paw lick ([3]; mouse): 39.5 ± 13.5 s | latency to lick the hind paw ([3]; mouse): significantly increased | activity in tail-flick model [4]: active | effective dose range [4]: low nanomole range | response latency in the tail flick model [4]: reduced the response latency
